Experimental data taken from US5473051A, “Inhibition of Mac-1 receptor binding to fibrinogen using D30 homologs” (The Scripps Research Institute, priority 1991, dated 1995).
“And” between values parts separate entries of the source, which are not always exact repeats. Identical values can stand only once. “Also recorded” adds a separate entry of the source.

How the values were obtained:
neutrophils or monocytes = experiment: Cell attachment to polypeptide-coated wells; type: cell-based, human
Experimental: To determine the Mac-1 receptor-binding site on the gamma chain of D30, the synthetic polypeptides prepared above were separately evaluated in cell attachment assays. For these assays, wells of 96-well microtiter plates (Linbro/Titertek; Flow Laboratories, VA) were coated with 60 μl of a 1 mg/ml solution of individual synthetic polypeptides prepared above. The wells containing the dissolved polypeptides were maintained for 16 hours at 4° C. The wells were then washed twice with PBS and blocked for 30 minutes with 0.1% BSA in PBS. After a final wash, 100 μl of DMEM containing 1% fetal bovine serum and 2×10^5 cells/ml of either neutrophils or monocytes prepared respectively in Example 2B and Example 8D were admixed into each well. The cells were maintained for 30 minutes at room temperature to allow the cells to attach to the polypeptide-coated wells. Non-adherant cells were removed from the wells by washing twice with PBS. […]
Adherent cells were quantitated by staining with 0.5% crystal violet. […] The optical density (O.D.) at 550 nm was determined with an ELISA reader (Biotek Instruments). Non-specific adherence was determined by plating cells on BSA-coated wells for the appropriate period of time. Specific adhesion to a given polypeptide substrate was calculated by subtracting the O.D. obtained with cells plated on BSA from that observed for cells plated on individual polypeptides. […]

THP-1 cells = experiment: Inhibition of THP-1 cell attachment to fibrinogen-coated wells; type: cell-based, human
Experimental: Cell attachment assays were performed to determine if the Plb polypeptide (SEQ ID NO 13) which was derived from the gamma chain of D30 from residue 195 to residue 201 would inhibit the binding of THP-1 cells to fibrinogen-coated plates as effectively as the larger polypeptide, P1 (SEQ ID NO 12). The assays were performed as described in Example 8C with the following modifications: the microtiter wells were coated with 10 μg/ml of fibrinogen overnight at room temperature to form fibrinogen-coated wells; the unoccupied sites on the wells were then blocked to prevent non-specific background with 3% gelatin for 30 minutes at room temperature; 2×10^5 THP-1 cells prepared as described in Example 8D2) were separately admixed with the polypeptides P1, […] and L10, the latter of which served as a control, ranging in concentration from 0.03 mg/ml to 1 mg/ml to form THP-1 cell-polypeptide admixtures; the resultant admixtures were maintained for 30 minutes at room temperature after which time the cells were admixed to the fibrinogen-coated plates as described in Example 8C.
The results of the inhibition of cell attachment assay are shown above in Table 2. The absorbance of crystal violet stain, indicating the relative number of cells that attached to the fibrinogen-coated wells, was measured at 600 nm. The absorbance values are tabulated in columns according to the concentration of each polypeptide separately tested in the assay. […] These six amino acid residues comprise the Mac-1 receptor binding site of fibrinogen.

Mac-1 receptor [1] = target: T1, Mac-1 receptor (Homo sapiens, UniProt P05107+P11215); experiment: Inhibition of 125I-P1 binding to THP-1 cells; parameters: Separate aliquots of the resuspended Mac-1 receptor-bearing neutrophils were stimulated with 10 μM of the chemotactic peptide; endogenous in cells; details: one hour
Experimental: Similar binding assays and inhibition thereof were performed using the monocytic cell line THP-1 (ATCC TIB 202, Bethesda, Md.). THP-1 cells were maintained in RPMI 1640 supplemented with 10% fetal bovine serum (HyClone, Logan, UT), 20 mM Hepes, 100 μg/ml gentamycin, 2 mM L-glutamine and 10 μM beta-mercaptoethanol. The competitive inhibitors evaluated in the assay to compete for the binding of the labeled P1 polypeptide to THP-1 cells included the following:D30 prepared as described in Example 1; the irrelevant polypeptide L10 described above; the monoclonal antibody IB4 which recognizes the beta subunit of the Mac-1 receptor (Wright et al., Proc. Natl. Acad. Sci., USA, 80:5699-5703 (1983); the monoclonal antibody M1/70 which recognizes the alpha subunit of the Mac-1 receptor (Ho et al., J. Biol. Chem., 258:2766-2769 (1983); and a monoclonal antibody against tissue factor as described by Morrisey et al., Thromb. Res., 52:247-261 (1988 ).
The assays in which D30 or polypeptides derived therefrom were performed as described above and in Example 6. The assays in which antibodies were used as competitive inhibitors were performed as described in Example 2C using 50 μg/ml of each antibody. […] The amount of binding of radiolabelled P1 polypeptide to THP-1 cells was measured after a […] maintenance period in the absence or presence of unlabelled competitors. […]

Mac-1 receptor [2] = target: T1, Mac-1 receptor; experiment: Binding of 125I-P1 to monocytes and competition; parameters: Separate aliquots of the resuspended Mac-1 receptor-bearing neutrophils were stimulated with 10 μM of the chemotactic peptide; endogenous in cells; host or cells: neutrophils from blood of normal volunteers, stimulated with fMLP
Experimental: Anticoagulated blood was prepared as described in Example 2B. After resuspending the pelleted erythrocytes, mononuclear and polynuclear cells with a volume equal to the starting blood volume with chilled 0.14M PBS, 35 ml of the cell suspension were layered onto 15 ml of Ficoll-Hypaque (Pharmacia) in a 50 ml polypropylene tube and centrifuged at 400×g for 40 minutes at room temperature. The cells at the interface were carefully removed with sterile plastic pipettes and were then washed two times with excess 5 mM PBS-EDTA (ethylene diamine tetracetic acid). The washed cells were then centrifuged first at 400×g for 20 minutes at 4° C., the pellet was resuspended as above, then the suspension was centrifuged again at 120×g for 12 minutes at 4° C. The cell pellet was again resuspended to form a PMBC cell suspension. […]
Human monocytes were purified from the platelet-free PMBC cell suspension as described by Fischer et al., Academic Press, Inc., New York, pp: 43-47 (1981). […] The purity of the monocyte preparation was greater than 90% as assessed by alpha-naphthyl acetate esterase staining and the viability was greater than 95% as judged by trypan blue exclusion. […]
The specific cell-associated binding of radiolabelled P1 to monocytes was measured over 60 minutes at 10 minute intervals and was calculated as described in Example 6. […]

Mac-1 receptor [3] = target: T1, Mac-1 receptor; experiment: Inhibition of 125I-fibrinogen binding to THP-1 cells by polypeptide; parameters: Separate aliquots of the resuspended Mac-1 receptor-bearing neutrophils were stimulated with 10 μM of the chemotactic peptide; endogenous in cells; host or cells: neutrophils from blood of normal volunteers, stimulated with fMLP
Experimental: The specificity of the P1 polypeptide for the Mac-1 receptor on THP-1 cells was confirmed in assays where the binding of purified intact fibrinogen to THP-1 cells was inhibited by P1 but not by the irrelevant polypeptide, L10. The assays were performed as described in Example 6 with the exception that THP-1 cells prepared as described in Example 8D were used instead of neutrophils. The amount of polypeptide used in the assay ranged in concentration from 7 μg/ml up to 60 μg/ml.
The amount of radiolabelled fibrinogen bound to THP-1 cells was expressed as molecules/cell ×1000 and plotted on the ordinate against increasing polypeptide concentrations as shown in FIG. 7.

Mac-1 receptor [4] = target: T1, Mac-1 receptor; experiment: Competition of 125I-fibrinogen binding to stimulated neutrophils; parameters: Separate aliquots of the resuspended Mac-1 receptor-bearing neutrophils were stimulated with 10 μM of the chemotactic peptide; endogenous in cells; host or cells: neutrophils from blood of normal volunteers, stimulated with fMLP
Experimental: Fibrinogen was purified as described in Example 1 and radiolabelled as described for D30 in Example 2A. Mac-1 receptor-bearing neutrophils were prepared as described in 2B. Separate aliquots of stimulated neutrophils at a concentration of 1.5×10^7 cells/ml were simultaneously incubated with a predetermined subsaturating dose of ^125 I-labelled fibrinogen (50 μg/ml) and increasing concentrations of various competing proteins for 20 minutes at room temperature. The reaction in the admixture was terminated by centrifugation through silicon oils as described in Example 2. The amount of labelled Mac-1 receptor:fibrinogen complex was determined by gamma detection. Non-specific binding was calculated as described in Example 2 and subtracted from the total to calculate specific binding.
Unlabelled fibrinogen and fibrinogen fragments X, D:E and D obtained as described in Example 1A and B were evaluated for their ability to compete for labelled fibrinogen binding to stimulated neutrophils.
Fibrinogen fragments E and D30 obtained as described in Example 1B were evaluated for their ability to compete for labelled fibrinogen binding to stimulated neutrophils.

T1 sequence (P05107 23-769, other chains not shown): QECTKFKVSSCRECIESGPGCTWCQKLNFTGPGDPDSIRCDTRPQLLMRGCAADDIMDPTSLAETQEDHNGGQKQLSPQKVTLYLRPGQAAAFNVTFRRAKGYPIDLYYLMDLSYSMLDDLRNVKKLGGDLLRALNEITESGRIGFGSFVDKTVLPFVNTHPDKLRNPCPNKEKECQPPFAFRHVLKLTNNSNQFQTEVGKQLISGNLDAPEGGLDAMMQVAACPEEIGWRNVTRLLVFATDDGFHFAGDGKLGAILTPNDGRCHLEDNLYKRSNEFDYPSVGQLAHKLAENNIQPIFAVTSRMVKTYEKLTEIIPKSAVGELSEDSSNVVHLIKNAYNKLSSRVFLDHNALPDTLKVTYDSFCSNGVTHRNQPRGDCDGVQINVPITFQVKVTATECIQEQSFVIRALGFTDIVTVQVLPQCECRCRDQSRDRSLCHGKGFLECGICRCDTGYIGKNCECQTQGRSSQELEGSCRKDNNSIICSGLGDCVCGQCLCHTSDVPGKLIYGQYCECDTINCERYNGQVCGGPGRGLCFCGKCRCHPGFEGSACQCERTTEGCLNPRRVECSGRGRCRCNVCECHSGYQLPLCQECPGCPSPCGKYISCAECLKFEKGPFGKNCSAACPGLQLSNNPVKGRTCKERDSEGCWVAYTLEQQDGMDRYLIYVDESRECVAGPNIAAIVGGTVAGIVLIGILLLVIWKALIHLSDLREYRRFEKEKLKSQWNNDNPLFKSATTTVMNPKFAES

Substance | promotion of cell attachment (in words) (neutrophils or monocytes) | inhibition of THP-1 cell attachment to fibrinogen (in words) (THP-1 cells; 0.03 to 1 mg/ml polypeptide) | polypeptide concentration giving maximal inhibition of THP-1 binding to fibrinogen (THP-1 cells; 0.03 to 1 mg/ml tested) | Absorbance at 600 nm (THP-1 cells attached to fibrinogen) (THP-1 cells; polypeptide 0.03 mg/ml) | Absorbance at 600 nm (THP-1 cells attached to fibrinogen) (THP-1 cells; polypeptide 0.125 mg/ml) | Absorbance at 600 nm (THP-1 cells attached to fibrinogen) (THP-1 cells; polypeptide 0.5 mg/ml) | Absorbance at 600 nm (THP-1 cells attached to fibrinogen) (THP-1 cells; polypeptide 0.60 mg/ml) | Absorbance at 600 nm (THP-1 cells attached to fibrinogen) (THP-1 cells; polypeptide 1.0 mg/ml) | total specific binding of P1 to THP-1 cells in the absence of competitors (Mac-1 receptor [1]) | competition of 125I-P1 binding to monocytes (Mac-1 receptor [2]; 1 mg/ml cold polypeptide) | binding of radiolabelled P1 to monocytes (Mac-1 receptor [2]; one hour assay, 20,000 cpm 125I-P1) | inhibition of fibrinogen binding to THP-1 cells (in words) (Mac-1 receptor [3]; 7 to 60 μg/ml polypeptide) | polypeptide concentration giving maximal inhibition of fibrinogen binding to THP-1 cells (Mac-1 receptor [3]; 7 to 60 μg/ml tested) [µg/mL] | IC50 for inhibition of 125I-fibrinogen binding to stimulated neutrophils (Mac-1 receptor [4]; 50 μg/ml 125I-fibrinogen, 20 minutes at room temperature) [µg/mL] | competition of 125I-fibrinogen binding to stimulated neutrophils (in words) (Mac-1 receptor [4]; increasing concentrations of competitor) | 125I-fibrinogen specifically bound in the absence of competitors (Mac-1 receptor [4]; stimulated neutrophils, 50 μg/ml 125I-fibrinogen)
KYGWTVFQKRLDGSV [P1, N-terminal lysine-tyrosine-glycine added] | promoting cells attachment | effective at inhibiting cell attachment at all concentrations | 0,125 mg/ml | 1.02 | 0.42 | 0.36 | 1.12 | 0.48 | approximately 16,000 cpm | competitively inhibited; also recorded: competed | binds to monocytes in a non-saturable curve | inhibited | 20 |  |  | 
fibrinogen |  |  |  |  |  |  |  |  |  |  |  |  |  | 25 to 50 | compete | 80,200±8,000 molecules/cell and 99,600±4,500 molecules/cell
